Experimental findings from article PMC9511493, “2-(Fluoromethoxy)-4′-(S-methanesulfonimidoyl)-1,1′-biphenyl (UCM-1306), an Orally Bioavailable Positive Allosteric Modulator of the Human Dopamine D1 Receptor for Parkinson’s Disease” (Journal of Medicinal Chemistry, 2022) are described below.

Data set [1] is described as follows: parallel artificial membrane permeability assay (PAMPA). The class given is in vitro ADME. The following applies: read-out: P. The protocol:
Parallel artificial membrane permeability assay (PAMPA). The assessment of the membrane permeability of selected compounds and reference compounds propranolol and metoprolol was performed in a commercially available 96-well Corning Gentest pre-coated PAMPA plate system (Cultek S.L.U., Spain). Prior to use, the pre-coated PAMPA plate system was warmed to rt for 30 min and 300 μL of 200 μM solution of tested compound in 2% DMSO in PBS were added to the wells in the receiver (donor) plate.
Then, 200 μL of PBS were added to the wells in the filter (acceptor) plate. The filter plate was placed on the receiver plate by slowly lowering the pre-coated PAMPA plate until it sits on the receiver plate. […] The final concentrations of compound in both donor and acceptor wells were analyzed by HPLC-MS using SIM mode, and quantification was estimated by using the peak area integration normalized with an internal standard. Permeability value of the compounds was calculated using the following formula: P (cm/s) = {-ln[1-CA(t)/Ceq]}/[A*(1/VD+1/VA)*t], where A = filter area (0.3 cm2), VD = donor well volume (0.3 mL), VA = acceptor well volume (0.2 mL), t = incubation time (s), CA(t) = compound concentration (μM) in acceptor well at time t, CD(t) = compound concentration (μM) in donor well at time t, and Ceq = […]
A general note: The PAMPA barrier holds no transporters, so it reflects passive diffusion.

For a further data set, the target named is T1, hERG potassium channel (Homo sapiens, UniProt Q12809).
T1 construct: expressed in transfected cells; host or cells: CHO cell line
In words: hERG ion channel inhibition (Fluxor potassium assay, CHO cells). It counts as cell-based. The note with it: blockade of the K+ channel current at 10 μM. The method, then: CYP1A2 and CYP2C19, 7- methoxy- 4(trifluoromethyl)coumarin for CYP2C9, 3-[2-(N,N- diethyl -N-methylammonium)ethyl]-7- methoxy- 4- methylcoumarin for CYP2D6, and 7- benzyloxytrifluoromethylcoumarin for CYP3A4), to give the final assay concentrations in a reaction volume of 200 µL. Reactions were terminated after specific time for each cytochrome by addition of STOP solution (0.5 M 80:20 ACN/TrisHCl). […]
hERG ion channel inhibition. The assay was carried out using a CHO cell line transfected with the hERG potassium channel. C ells were seeded (2500 cells/well) 72 h before the assay on a 384-well black plate (Greiner 781091). Cell s were maintained at 37 °C in a 5% CO2 atmosphere for 24 h and at 30 °C in a 5% CO 2 atmosphere for 48 h. hERG activity was measured by using the FluxorTM Potassium Ion Chanel Assay Kit (Thermo Fisher F10016). Medium was replaced for 20 µL of loading buffer and cells were incubated for 60 min at 25 °C, protected from direct light. After incubation, l oading buffer was replaced for a ssay buffer and compounds were incubated for 30 min at 25 °C. After this time, 5 µL of stimulus buffer was added to each well and fluorescence was read (λ ex = 490 nm, λem = 525 nm) every second after the establishment of a baseline line using an imaging plate reader system (FDSS7000EX, Hamamatsu®). The fluorescent signal was […]
For orientation: hERG is a cardiac potassium channel; its block is linked to QT prolongation.

The target in another data set is T2, CYP1A2 (Homo sapiens, UniProt P05177).
T2 construct: host or cells: insect cell microsomes
T2 sequence (P05177 1-516): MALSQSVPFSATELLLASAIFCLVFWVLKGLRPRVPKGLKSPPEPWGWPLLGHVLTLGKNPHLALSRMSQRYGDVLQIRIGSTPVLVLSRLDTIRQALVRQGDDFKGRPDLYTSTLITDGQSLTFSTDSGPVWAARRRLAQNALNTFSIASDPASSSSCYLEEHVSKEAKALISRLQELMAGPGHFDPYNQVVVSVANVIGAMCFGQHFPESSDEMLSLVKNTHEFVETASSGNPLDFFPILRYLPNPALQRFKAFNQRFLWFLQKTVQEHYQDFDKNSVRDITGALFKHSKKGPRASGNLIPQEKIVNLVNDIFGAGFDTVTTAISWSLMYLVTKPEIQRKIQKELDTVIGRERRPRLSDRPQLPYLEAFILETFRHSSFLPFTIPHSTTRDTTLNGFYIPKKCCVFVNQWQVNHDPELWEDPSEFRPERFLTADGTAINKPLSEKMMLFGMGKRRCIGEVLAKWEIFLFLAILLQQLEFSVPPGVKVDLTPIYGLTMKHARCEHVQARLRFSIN
In words: cytochrome inhibition, fluorescence assay, CYP1A2. It counts as in vitro ADME. The protocol: (§1) Cytochrome inhibition. The objective of this study was to screen the potential of test […]
(§2) performed using recombinant isoforms CYP1A2, CYP2C9, CYP2C19, CYP2D6, and CYP3A4, and probe substrates with fluorescent detection.
(§3) Assays were conducted in a 200 µL volume in 96-well microtiter plates (COSTAR 3915).
(§4) Addition of cofactor-buffer mixture (KH2PO4 buffer, 1.3 mM NADP, 3.3 mM MgCl2, 3.3 mM glucose -6- phosphate, and 0.4 U/mL glucose -6- phosphate dehydrogenase), supersomes control, standard inhibitors (furafyline, tranylzypromine, ketoconazole, sulfaphenazole, and quinidine from Sigma Aldrich) and test compound to the plate was carried out by a liquid handling station (Zephyr Caliper). The plate was then pre-incubated at 37 °C for 5 min, and the reaction was initiated by the addition of the pr e - warmed enzyme/substrate (E/S) mix. […]
(§5) Fluorescence per well was measured using a fluorescence plate reader (Tecan Infinite M1000 pro) and percentage of inhibition was calculated. hERG ion channel inhibition. […]

For another data set, the target named is T3, CYP2C9 (Homo sapiens, UniProt P11712).
T3 construct: host or cells: insect cell microsomes
Description: cytochrome inhibition, fluorescence assay, CYP2C9. It counts as in vitro ADME. The protocol: as §1, §2, §3, §4, §5

[2] abbreviates: percentage of inhibition at 10 μM.

T1 sequence (Q12809 whole entry): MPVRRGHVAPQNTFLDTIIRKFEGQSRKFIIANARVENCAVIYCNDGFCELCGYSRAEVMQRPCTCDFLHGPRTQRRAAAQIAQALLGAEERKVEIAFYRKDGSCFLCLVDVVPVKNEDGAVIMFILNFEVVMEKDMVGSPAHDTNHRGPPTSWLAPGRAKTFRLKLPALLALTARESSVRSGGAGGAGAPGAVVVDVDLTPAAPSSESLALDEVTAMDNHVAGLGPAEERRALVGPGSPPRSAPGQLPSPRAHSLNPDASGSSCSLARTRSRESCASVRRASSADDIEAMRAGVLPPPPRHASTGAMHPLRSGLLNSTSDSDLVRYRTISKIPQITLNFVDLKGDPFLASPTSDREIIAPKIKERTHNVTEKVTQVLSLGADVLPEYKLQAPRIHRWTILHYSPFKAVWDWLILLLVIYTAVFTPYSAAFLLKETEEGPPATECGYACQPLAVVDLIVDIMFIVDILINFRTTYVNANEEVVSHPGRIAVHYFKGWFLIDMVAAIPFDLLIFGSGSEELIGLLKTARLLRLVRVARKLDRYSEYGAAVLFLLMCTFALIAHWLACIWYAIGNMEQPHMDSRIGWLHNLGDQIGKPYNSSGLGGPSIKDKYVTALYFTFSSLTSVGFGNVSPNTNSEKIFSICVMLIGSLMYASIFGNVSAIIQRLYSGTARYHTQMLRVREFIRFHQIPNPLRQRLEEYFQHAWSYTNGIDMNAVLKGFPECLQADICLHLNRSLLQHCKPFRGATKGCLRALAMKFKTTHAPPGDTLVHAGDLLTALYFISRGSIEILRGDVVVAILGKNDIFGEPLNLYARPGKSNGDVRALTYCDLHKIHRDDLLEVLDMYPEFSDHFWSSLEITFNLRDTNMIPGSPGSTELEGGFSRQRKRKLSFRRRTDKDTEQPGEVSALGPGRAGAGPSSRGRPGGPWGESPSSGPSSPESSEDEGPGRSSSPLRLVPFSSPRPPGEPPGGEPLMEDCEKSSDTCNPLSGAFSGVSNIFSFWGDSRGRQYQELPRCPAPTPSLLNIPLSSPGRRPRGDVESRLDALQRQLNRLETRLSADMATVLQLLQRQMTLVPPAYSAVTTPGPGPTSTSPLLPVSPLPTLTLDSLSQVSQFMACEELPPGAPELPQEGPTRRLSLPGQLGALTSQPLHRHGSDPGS
T3 sequence (P11712 whole entry): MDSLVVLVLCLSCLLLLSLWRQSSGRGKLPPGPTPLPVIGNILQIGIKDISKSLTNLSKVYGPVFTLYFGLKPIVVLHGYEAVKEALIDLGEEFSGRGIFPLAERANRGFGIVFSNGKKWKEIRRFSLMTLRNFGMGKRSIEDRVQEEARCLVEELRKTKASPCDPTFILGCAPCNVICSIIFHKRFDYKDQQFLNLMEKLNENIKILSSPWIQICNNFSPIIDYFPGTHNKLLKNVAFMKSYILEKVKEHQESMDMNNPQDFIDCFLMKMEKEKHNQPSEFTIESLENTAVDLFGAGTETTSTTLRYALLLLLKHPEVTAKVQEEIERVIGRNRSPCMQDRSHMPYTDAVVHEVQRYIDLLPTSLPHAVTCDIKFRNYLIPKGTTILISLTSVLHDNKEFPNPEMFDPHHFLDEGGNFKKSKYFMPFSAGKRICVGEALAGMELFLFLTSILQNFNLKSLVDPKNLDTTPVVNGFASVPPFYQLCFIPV

The IC50 is the concentration that inhibits the measured activity by half. For the compound `O=Cc1ccc(-c2ccccc2OCF)cc1` [Compound 3, 2′-(Fluoromethoxy)[1,1′-biphenyl]-4-carbaldehyde], the Papp at 5 h, 200 μM in data set [1] worked out at 20 ×10⁻⁶ cm/s. For the same compound, the “hERG inhibition (%)” value on hERG potassium channel was determined as 11 ± 2%. At CYP1A2, this compound had an IC50 of 830 ± 170 nM. Moreover, at CYP2C9 (Table S1, concentration not given), the “CYP2C9 (%)” value was “inactive”.

As for `CS(=N)(=O)c1ccc(-c2ccccc2OCF)cc1` (centres unmarked) [Compound 26, 2-(Fluoromethoxy)-4′-(S-methanesulfonimidoyl)-1,1′-biphenyl], in data set [1], the Papp at 5 h, 200 μM amounted to 24 ×10⁻⁶ cm/s. Besides, the “hERG inhibition (%)” value at hERG potassium channel is on record as 21%. On CYP1A2 (setting [2]), the “CYP1A2 (%)” value turned out to be 49 ± 2%. At CYP2C9 (setting [2]), the “CYP2C9 (%)” value was found to be 38 ± 3%.
